Test results as given in patent publication US11319299B2, “Substituted carboxamides as inhibitors of WDR5 protein-protein binding” (PROPELLON THERAPEUTICS INC., priority 2016, dated 2022).
Like-named read-outs stand apart in the source and are kept apart here.

Tests used:
MV4-11 cells = assay: Cell proliferation assay (ATPlite); type: cell-based; details: Homo sapiens, MV4-11, 120 h; MV-411 cells, five days; read-out: In vitro whole cell potency in MV-411 cells, (IC50)
In short: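 MV4-11 cells at 1,000 cells/well in Alpha-MEM with 10% FBS were dosed over a 10-point range (top 10 μM). Cells were grown 5 days at 37° C, 5% CO2. Viability was read as ATPlite luminescence.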

WDR5 = WDR5 (Homo sapiens (Human), UniProt P61964); assay: Surface Plasmon Resonance (SPR) assay, KD and residence time; type: binding; details: read-out: WDR5 binding affinity (KD)
[1] = surface plasmon resonance (SPR) assay
[2] = surface plasmon resonance (SPR)

**Q.** With `CC(C)COc1ncc(-c2cc(NC(=O)c3c[nH]c(=O)cc3C(F)(F)F)c(N3C[C@@H](C)N(C)[C@@H](C)C3)cc2F)cc1Cl` [Example 91, N-[5-[5-chloro-6-(2-methylpropoxy)pyridin-3-yl]-4-fluoro-2-[(3R,5S)-3,4,5-trimethylpiperazin-1-yl]phenyl]-6-oxo-4-(trifluoromethyl)-1H-pyridine-3-carboxamide] as the compound, how does the IC50 (MV4-11 cells) read?
**A.** 257 nM

**Q.** And the Kd (WDR5; [1])?
**A.** 4.47 nM

**Q.** `C[C@@H]1CN(c2cc(F)c(-c3ccc(OCC4CC4)c(Cl)c3)cc2NC(=O)c2c[nH]c(=O)cc2C(F)(F)F)C[C@H](C)N1C` [Example 92, N-[5-[3-chloro-4-(cyclopropylmethoxy)phenyl]-4-fluoro-2-[(3R,5S)-3,4,5-trimethylpiperazin-1-yl]phenyl]-6-oxo-4-(trifluoromethyl)-1H-pyridine-3-carboxamide] was tested. Which IC50 (MV4-11 cells) did it give?
**A.** 71 nM

**Q.** What about the Kd (WDR5; [1]) of the same compound?
**A.** 10.9 nM

**Q.** How did the IC50 (MV4-11 cells) turn out when `C[C@@H]1CN(c2cc(F)c(-c3cnc(N4CCOCC4)nc3)cc2NC(=O)c2cn(C)c(=O)cc2C(F)(F)F)C[C@H](C)N1C` [Example 93, N-[4-fluoro-5-(2-morpholin-4-ylpyrimidin-5-yl)-2-[(3R,5S)-3,4,5-trimethylpiperazin-1-yl]phenyl]-1-methyl-6-oxo-4-(trifluoromethyl)pyridine-3-carboxamide] was run?
**A.** 48 nM

**Q.** And the Kd (WDR5; [1])?
**A.** 2.17 nM

**Q.** With `C[C@@H]1CN(c2ncc(-c3cc(NC(=O)c4c[nH]c(=O)cc4C(F)(F)F)c(N4C[C@@H](C)N(C)[C@@H](C)C4)cc3F)cn2)C[C@H](C)O1` [Example 161, N-[4-fluoro-5-[2-[(2R,6S)-2,6-dimethylmorpholin-4-yl]pyrimidin-5-yl]-2-[(3S,5R)-3,4,5-trimethylpiperazin-1-yl]phenyl]-6-oxo-4-(trifluoromethyl)-1H-pyridine-3-carboxamide] as the compound, how does the IC50 (MV4-11 cells) read?
**A.** 28 nM

**Q.** What about the Kd (WDR5; [1]) of the same compound?
**A.** 1 nM

**Q.** How did the IC50 (MV4-11 cells) turn out when `C[C@@H]1CN(c2cc(F)c(-c3cnc(N(C)C)c(F)c3)cc2NC(=O)c2c[nH]c(=O)cc2C(F)(F)F)C[C@H](C)N1C` [Example 221, N-[5-[6-(dimethylamino)-5-fluoropyridin-3-yl]-4-fluoro-2-[(3R,5S)-3,4,5-trimethylpiperazin-1-yl]phenyl]-6-oxo-4-(trifluoromethyl)-1H-pyridine-3-carboxamide] was run?
**A.** 120 nM

**Q.** What about the Kd (WDR5; [1]) of the same compound?
**A.** 0.769 nM

**Q.** With `C[C@@H]1CN(c2cc(F)c(C3=CCN(c4ncccn4)CC3)cc2NC(=O)c2c[nH]c(=O)cc2C(F)(F)F)C[C@H](C)N1C` [Example 245, N-[4-fluoro-5-(1-pyrimidin-2-yl-3,6-dihydro-2H-pyridin-4-yl)-2-[(3R,5S)-3,4,5-trimethylpiperazin-1-yl]phenyl]-6-oxo-4-(trifluoromethyl)-1H-pyridine-3-carboxamide] as the compound, how does the IC50 (MV4-11 cells) read?
**A.** 125 nM

**Q.** And the Kd (WDR5; [1])?
**A.** 1.39 nM

**Q.** What does the source list for `C[C@@H]1CN(c2cc(F)c(-c3ccc(N4CCOCC4)c(F)c3)cc2NC(=O)c2cn(C)c(=O)cc2C(F)(F)F)C[C@H](C)N1C` [Example 247, N-[4-fluoro-5-(3-fluoro-4-morpholin-4-ylphenyl)-2-[(3R,5S)-3,4,5-trimethylpiperazin-1-yl]phenyl]-1-methyl-6-oxo-4-(trifluoromethyl)pyridine-3-carboxamide]?
**A.** IC50 (MV4-11 cells): 854 nM; Kd (WDR5; [1]): 5.16 nM

**Q.** What does the source list for `C[C@@H]1CN(c2cc(F)c(-c3cnc(N4CCOCC4)nc3)cc2NC(=O)c2ccc(F)cc2C(F)(F)F)C[C@H](C)N1C` [Example 248, 4-fluoro-N-[4-fluoro-5-(2-morpholin-4-ylpyrimidin-5-yl)-2-[(3R,5S)-3,4,5-trimethylpiperazin-1-yl]phenyl]-2-(trifluoromethyl)benzamide]?
**A.** IC50 (MV4-11 cells): 137 nM; Kd (WDR5; [1]): 1.33 nM

**Q.** For `COc1cc(N2CC=C(c3cc(NC(=O)c4c[nH]c(=O)cc4C(F)(F)F)c(N4C[C@@H](C)N(C)[C@@H](C)C4)cc3F)CC2)ncn1` [Example 274, N-[4-fluoro-5-[1-(6-methoxypyrimidin-4-yl)-3,6-dihydro-2H-pyridin-4-yl]-2-[(3R,5S)-3,4,5-trimethylpiperazin-1-yl]phenyl]-6-oxo-4-(trifluoromethyl)-1H-pyridine-3-carboxamide], which IC50 (MV4-11 cells) is on record?
**A.** 75 nM

**Q.** And the Kd (WDR5; [1])?
**A.** 1.29 nM

**Q.** How did the IC50 (MV4-11 cells) turn out when `C[C@@H]1CN(c2cc(F)c(C3=CCCN(c4ncccn4)C3)cc2NC(=O)c2c[nH]c(=O)cc2C(F)(F)F)C[C@H](C)N1C` [Example 334, N-[4-fluoro-5-(1-pyrimidin-2-yl-3,6-dihydro-2H-pyridin-5-yl)-2-[(3R,5S)-3,4,5-trimethylpiperazin-1-yl]phenyl]-6-oxo-4-(trifluoromethyl)-1H-pyridine-3-carboxamide] was run?
**A.** 31 nM

**Q.** And the Kd (WDR5; [1])?
**A.** 0.095 nM

**Q.** `C[C@@H]1CN(c2cc(F)c(-c3ccnc(N4CCOCC4)n3)cc2NC(=O)c2c[nH]c(=O)cc2C(F)(F)F)C[C@H](C)N1C` [Example 378, N-[4-fluoro-5-(2-morpholin-4-ylpyrimidin-4-yl)-2-[(3R,5S)-3,4,5-trimethylpiperazin-1-yl]phenyl]-6-oxo-4-(trifluoromethyl)-1H-pyridine-3-carboxamide] was tested. Which IC50 (MV4-11 cells) did it give?
**A.** 20 nM

**Q.** What about the Kd (WDR5; [1]) of the same compound?
**A.** 0.877 nM

**Q.** How did the IC50 (MV4-11 cells) turn out when `C[C@@H]1CN(c2cc(F)c(C3=CCCN(c4ncc(CO)cn4)C3)cc2NC(=O)c2c[nH]c(=O)cc2C(F)(F)F)C[C@H](C)N1C` [Example 413, N-[4-fluoro-5-[1-[5-(hydroxymethyl)pyrimidin-2-yl]-3,6-dihydro-2H-pyridin-5-yl]-2-[(3R,5S)-3,4,5-trimethylpiperazin-1-yl]phenyl]-6-oxo-4-(trifluoromethyl)-1H-pyridine-3-carboxamide] was run?
**A.** 57 nM

**Q.** And the Kd (WDR5; [2])?
**A.** 0.302 nM

**Q.** What does the source list for `C[C@@H]1CN(c2cc(F)c(C3=CCCN(c4ncc(CN(C)C)cn4)C3)cc2NC(=O)c2c[nH]c(=O)cc2C(F)(F)F)C[C@H](C)N1C` [Example 414, N-[5-[1-[5-[(dimethylamino)methyl]pyrimidin-2-yl]-3,6-dihydro-2H-pyridin-5-yl]-4-fluoro-2-[(3R,5S)-3,4,5-trimethylpiperazin-1-yl]phenyl]-6-oxo-4-(trifluoromethyl)-1H-pyridine-3-carboxamide]?
**A.** IC50 (MV4-11 cells): 8 nM; Kd (WDR5; [2]): 0.658 nM

**Q.** With `C[C@@H]1CN(c2cc(F)c(C3=CCCN(c4ncc(CN5CCOCC5)cn4)C3)cc2NC(=O)c2c[nH]c(=O)cc2C(F)(F)F)C[C@H](C)N1C` [Example 415, N-[4-fluoro-5-[1-[5-(morpholin-4-ylmethyl)pyrimidin-2-yl]-3,6-dihydro-2H-pyridin-5-yl]-2-[(3R,5S)-3,4,5-trimethylpiperazin-1-yl]phenyl]-6-oxo-4-(trifluoromethyl)-1H-pyridine-3-carboxamide] as the compound, how does the IC50 (MV4-11 cells) read?
**A.** 17 nM

**Q.** What about the Kd (WDR5; [2]) of the same compound?
**A.** 1.1 nM

**Q.** What does the source list for `C[C@@H]1CN(c2ncc(-c3cc(NC(=O)c4ccc(F)cc4C(F)(F)F)c(N4CCN(C)[C@@H](C)C4)cc3F)cn2)CCO1` [Example 456, 4-fluoro-N-[4-fluoro-2-[(3S)-3,4-dimethylpiperazin-1-yl]-5-[2-[(2R)-2-methylmorpholin-4-yl]pyrimidin-5-yl]phenyl]-2-(trifluoromethyl)benzamide]?
**A.** IC50 (MV4-11 cells): 89 nM; Kd (WDR5; [2]): 1.08 nM

**Q.** `C[C@@H]1CN(c2cc(F)c(C3=CCN(C(=O)OC4(C)CCC4)CC3)cc2NC(=O)c2c[nH]c(=O)cc2C(F)(F)F)C[C@H](C)N1C` [Example 470, (1-methylcyclobutyl) 4-[2-fluoro-5-[[6-oxo-4-(trifluoromethyl)-1H-pyridine-3-carbonyl]amino]-4-[(3R,5S)-3,4,5-trimethylpiperazin-1-yl]phenyl]-3,6-dihydro-2H-pyridine-1-carboxylate] was tested. Which IC50 (MV4-11 cells) did it give?
**A.** 56 nM

**Q.** And the Kd (WDR5; [2])?
**A.** 4.27 nM

**Q.** What does the source list for `C[C@@H]1CN(c2cc(F)c(C3=CCCN(C(=O)OC4(C)CCC4)C3)cc2NC(=O)c2c[nH]c(=O)cc2C(F)(F)F)C[C@H](C)N1C` [Example 471, (1-methylcyclobutyl) 5-[2-fluoro-5-[[6-oxo-4-(trifluoromethyl)-1H-pyridine-3-carbonyl]amino]-4-[(3R,5S)-3,4,5-trimethylpiperazin-1-yl]phenyl]-3,6-dihydro-2H-pyridine-1-carboxylate]?
**A.** IC50 (MV4-11 cells): 78 nM; Kd (WDR5; [2]): 0.494 nM

**Q.** For `C[C@@H]1CN(c2cc(F)c(C3=CCN(C(=O)OC4(C)CCC4)C3)cc2NC(=O)c2c[nH]c(=O)cc2C(F)(F)F)C[C@H](C)N1C` [Example 472, (1-methylcyclobutyl) 3-[2-fluoro-5-[[6-oxo-4-(trifluoromethyl)-1H-pyridine-3-carbonyl]amino]-4-[(3R,5S)-3,4,5-trimethylpiperazin-1-yl]phenyl]-2,5-dihydropyrrole-1-carboxylate], which IC50 (MV4-11 cells) is on record?
**A.** 104 nM

**Q.** What about the Kd (WDR5; [2]) of the same compound?
**A.** 0.407 nM

**Q.** What does the source list for `C[C@@H]1CN(c2cc(F)c(-c3nc(C(=O)N(C)CC4CC4)cs3)cc2NC(=O)c2c[nH]c(=O)cc2C(F)(F)F)C[C@H](C)N1C` [Example 483, N-(cyclopropylmethyl)-2-[2-fluoro-5-[[6-oxo-4-(trifluoromethyl)-1H-pyridine-3-carbonyl]amino]-4-[(3R,5S)-3,4,5-trimethylpiperazin-1-yl]phenyl]-N-methyl-1,3-thiazole-4-carboxamide]?
**A.** IC50 (MV4-11 cells): 24 nM; Kd (WDR5; [2]): 3.97 nM

**Q.** For `C[C@@H]1CN(c2ccc(-c3cc(NC(=O)c4c[nH]c(=O)cc4C(F)F)c(N4C[C@@H](C)N(C)[C@@H](C)C4)cc3F)cn2)CCO1` [Example 508, 4-(difluoromethyl)-N-[4-fluoro-5-[6-[(2R)-2-methylmorpholin-4-yl]pyridin-3-yl]-2-[(3R,5S)-3,4,5-trimethylpiperazin-1-yl]phenyl]-6-oxo-1H-pyridine-3-carboxamide], which IC50 (MV4-11 cells) is on record?
**A.** 73 nM

**Q.** And the Kd (WDR5; [2])?
**A.** 2.66 nM

**Q.** How did the IC50 (MV4-11 cells) turn out when `C[C@@H]1CN(c2cc(F)c(-c3csc(C(=O)N(C)CC4CC4)n3)cc2NC(=O)c2c[nH]c(=O)cc2C(F)(F)F)C[C@H](C)N1C` [Example 532, N-(cyclopropylmethyl)-4-[2-fluoro-5-[[6-oxo-4-(trifluoromethyl)-1H-pyridine-3-carbonyl]amino]-4-[(3R,5S)-3,4,5-trimethylpiperazin-1-yl]phenyl]-N-methyl-1,3-thiazole-2-carboxamide] was run?
**A.** 22 nM

**Q.** And the Kd (WDR5; [2])?
**A.** 0.694 nM
